Measurements published in patent US10428080B2, “TBK/IKK inhibitor compounds and uses thereof” (Merck Patent GmbH, priority 2015, dated 2019).
Where a name gives a salt, the structure may show the parent alone.

Experiments:
IKKε = target: T1, IKKε (Homo sapiens, UniProt Q14164); experiment: IKKe Biochemical Assay; settings: read-out: IKKε IC50
T1 sequence (Q14164 1-716): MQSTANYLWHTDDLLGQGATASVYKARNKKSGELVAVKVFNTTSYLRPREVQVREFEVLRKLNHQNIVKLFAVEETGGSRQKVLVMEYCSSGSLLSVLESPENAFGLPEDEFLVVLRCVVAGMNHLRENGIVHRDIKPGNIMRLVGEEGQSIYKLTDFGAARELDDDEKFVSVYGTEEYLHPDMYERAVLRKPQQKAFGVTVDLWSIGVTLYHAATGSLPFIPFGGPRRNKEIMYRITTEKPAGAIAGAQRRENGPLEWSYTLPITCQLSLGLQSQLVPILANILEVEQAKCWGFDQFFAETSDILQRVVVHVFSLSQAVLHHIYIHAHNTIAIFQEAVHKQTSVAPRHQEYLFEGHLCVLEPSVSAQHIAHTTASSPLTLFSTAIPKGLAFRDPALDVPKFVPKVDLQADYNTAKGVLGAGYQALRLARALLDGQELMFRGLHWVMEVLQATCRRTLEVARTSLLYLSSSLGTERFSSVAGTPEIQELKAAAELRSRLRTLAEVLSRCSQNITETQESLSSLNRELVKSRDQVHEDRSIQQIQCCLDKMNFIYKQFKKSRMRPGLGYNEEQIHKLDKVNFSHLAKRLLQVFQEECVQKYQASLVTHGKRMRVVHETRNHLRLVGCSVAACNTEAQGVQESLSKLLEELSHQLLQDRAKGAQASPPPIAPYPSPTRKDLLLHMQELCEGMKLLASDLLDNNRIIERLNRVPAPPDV
How it was run: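 Recombinant IKKε and substrate were incubated with compound (10-point 1:4 series, top 30 uM final, 1% DMSO) for 90 min at 25° C, then stopped. Substrate-to-product conversion was read by LabChip microfluidic mobility shift; 10 uM staurosporine served as full-inhibition wells.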

TBK1 = target: T2, TBK1 (Homo sapiens, UniProt Q9UHD2); experiment: TBK Biochemical Assay; settings: read-out: TBK1 IC50
T2 sequence (Q9UHD2 1-729): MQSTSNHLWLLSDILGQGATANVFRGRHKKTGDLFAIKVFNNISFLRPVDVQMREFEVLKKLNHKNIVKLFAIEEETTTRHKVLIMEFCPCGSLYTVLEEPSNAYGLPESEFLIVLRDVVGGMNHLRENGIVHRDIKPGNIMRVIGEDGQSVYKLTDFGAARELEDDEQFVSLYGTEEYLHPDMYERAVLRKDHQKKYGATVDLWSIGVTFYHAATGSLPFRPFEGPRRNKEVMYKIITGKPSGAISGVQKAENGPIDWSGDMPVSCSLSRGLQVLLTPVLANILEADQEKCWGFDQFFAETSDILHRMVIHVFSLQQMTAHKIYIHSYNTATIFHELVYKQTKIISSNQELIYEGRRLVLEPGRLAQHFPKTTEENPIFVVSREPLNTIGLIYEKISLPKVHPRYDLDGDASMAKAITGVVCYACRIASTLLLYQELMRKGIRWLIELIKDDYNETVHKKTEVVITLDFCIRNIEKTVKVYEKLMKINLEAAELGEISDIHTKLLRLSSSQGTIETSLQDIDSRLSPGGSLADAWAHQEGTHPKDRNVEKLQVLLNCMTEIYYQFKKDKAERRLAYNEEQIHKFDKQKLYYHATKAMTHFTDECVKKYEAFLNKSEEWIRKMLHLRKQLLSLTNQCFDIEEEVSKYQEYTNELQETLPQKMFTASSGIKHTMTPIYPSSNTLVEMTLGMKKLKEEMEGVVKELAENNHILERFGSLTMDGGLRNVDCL
How it was run: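 TBK1 enzyme and substrate incubated with compounds (10-point 1:4 dilution, top 30 uM final, 1% DMSO) for 90 min at 25° C, then stopped. Substrate/product peaks read by microfluidic mobility-shift (Caliper LabChip); 10 uM staurosporine as full-inhibition control.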

| Structure (SMILES) | IC50 (IKKε) | IC50 (TBK1) |
| --- | --- | --- |
| COc1cc(C(=O)N(C)C)ccc1-c1cc2nccc(-c3ccc(OCC4CNC4)c(C#N)c3)c2o1 [Compound 165, 4-{7-[4-(Azetidin-3-ylmethoxy)-3-cyano-phenyl]-furo[3,2-b]pyridin-2-yl}-3-methoxy-N,N-dimethyl-benzamide] | 100 to 1000 nM | 100 to 1000 nM |
| N#Cc1cc(-c2ccnc3cc(-c4ccc(C(=O)O)cc4)oc23)ccc1Oc1ccccc1F [Compound 169, 4-{7-[3-Cyano-4-(2-fluoro-phenoxy)-phenyl]-furo[3,2-b]pyridin-2-yl}-benzoic acid] | 100 to 1000 nM | 100 to 1000 nM |
| CN(C)C(=O)c1ccc(-c2cc3nccc(-c4ccc(N5CC[C@@H](N(C)C)C5)c(C#N)c4)c3o2)cc1 [Compound 172, 4-{7-[3-Cyano-4-((R)-3-dimethylamino-pyrrolidin-1-yl)-phenyl]-furo[3,2-b]pyridin-2-yl}-N,N-dimethyl-benzamide] | 100 to 1000 nM | 100 to 1000 nM |
| CN(C)C(=O)c1ccc(-c2cc3nccc(-c4ccc(O[C@H]5CCCOC5)c(C#N)c4)c3o2)cc1 [Compound 174, 4-(7-{3-Cyano-4-[(S)-(tetrahydro-pyran-3-yl)oxy]-phenyl}-furo[3,2-b]pyridin-2-yl)-N,N-dimethyl-benzamide] | 100 to 1000 nM | 100 to 1000 nM |
| CN(C)C(=O)c1ccc(-c2cc3nccc(-c4ccc(O)c(C#N)c4)c3o2)cc1 [Compound 175, 4-[7-(3-Cyano-4-hydroxy-phenyl)-furo[3,2-b]pyridin-2-yl]-N,N-dimethyl-benzamide] | 100 to 1000 nM | 100 to 1000 nM |
| CN(C)C(=O)c1ccc(-c2cc3nccc(-c4ccc(Oc5cccc(F)c5)c(C#N)c4)c3o2)cc1 [Compound 176, 4-{7-[3-Cyano-4-(3-fluoro-phenoxy)-phenyl]-furo[3,2-b]pyridin-2-yl}-N,N-dimethyl-benzamide] | 100 to 1000 nM | 100 to 1000 nM |
| CN(C)C(=O)c1ccc(-c2cc3nccc(-c4ccc(Oc5ccccc5F)c(C#N)c4)c3o2)cc1 [Compound 178, 4-{7-[3-Cyano-4-(2-fluoro-phenoxy)-phenyl]-furo[3,2-b]pyridin-2-yl}-N,N-dimethyl-benzamide] | 100 to 1000 nM | 100 to 1000 nM |
| COc1cc(C(=O)NCC2CCCCC2(F)F)ccc1-c1cc2nccc(-c3ccc(NC4CCOCC4)c(C#N)c3)c2o1 (centres unmarked) [Compound 180, 4-{7-[3-Cyano-4-(tetrahydro-pyran-4-ylamino)-phenyl]-furo[3,2-b]pyridin-2-yl}-N-(2,2-difluoro-cyclohexylmethyl)-3-methoxy-benzamide] | 100 to 1000 nM | 100 to 1000 nM |
| CN(C)C(=O)c1ccc(-c2cc3nccc(-c4ccc(Oc5cccnc5)c(C#N)c4)c3o2)cc1 [Compound 181, 4-{7-[3-Cyano-4-(pyridin-3-yloxy)-phenyl]-furo[3,2-b]pyridin-2-yl}-N,N-dimethyl-benzamide] | 100 to 1000 nM | 100 to 1000 nM |
| COc1cc(C(=O)N(C)C)ccc1-c1cc2nccc(-c3ccc(OC4CCN(C(=O)OC(C)(C)C)CC4)c(C#N)c3)c2o1 [Compound 182] | > 5000 nM | > 5000 nM |
| CC(C)(C)OC(=O)Nc1ccc(-c2cc3nccc(-c4ccc(OC5CCOCC5)c(C#N)c4)c3o2)cc1 [Compound 183] | 100 to 1000 nM | 1000 to 5000 nM |
| CC1CC(Oc2ccc(-c3ccnc4cc(-c5ccc(C(=O)N(C)C)cc5)oc34)cc2C#N)CCO1 (centres unmarked) [Compound 184, 4-{7-[3-Cyano-4-(2-methyl-tetrahydro-pyran-4-yloxy)-phenyl]-furo[3,2-b]pyridin-2-yl}-N,N-dimethyl-benzamide] | 100 to 1000 nM | 1000 to 5000 nM |
| CN(C)C(=O)c1ccc(-c2cc3nccc(-c4ccc(OC5CCNCC5)c(C#N)c4)c3o2)cc1 [Compound 185, 4-{7-[3-Cyano-4-(piperidin-4-yloxy)-phenyl]-furo[3,2-b]pyridin-2-yl}-N,N-dimethyl-benzamide hydrochloride] | 100 to 1000 nM | 1000 to 5000 nM |
| N#Cc1cc(-c2ccnc3cc(-c4ccc(C(=O)O)cc4)oc23)ccc1Oc1cccnc1 [Compound 186, 4-{7-[3-Cyano-4-(pyridin-3-yloxy)-phenyl]-furo[3,2-b]pyridin-2-yl}-benzoic acid] | 100 to 1000 nM | 1000 to 5000 nM |
| CCOC(=O)c1ccc(-c2cc3nccc(-c4ccc(N5CC[C@H](F)C5)c(C#N)c4)c3o2)cc1 [Compound 187, 4-{7-[3-Cyano-4-((S)-3-fluoro-pyrrolidin-1-yl)-phenyl]-furo[3,2-b]pyridin-2-yl}-benzoic acid ethyl ester] | 100 to 1000 nM | 1000 to 5000 nM |
| N#Cc1cc(-c2ccnc3cc(-c4ccc(C(=O)O)cc4)oc23)ccc1Oc1cccc(F)c1 [Compound 188, 4-{7-[3-Cyano-4-(3-fluoro-phenoxy)-phenyl]-furo[3,2-b]pyridin-2-yl}-benzoic acid] | 1000 to 5000 nM | 1000 to 5000 nM |
| CC1CC(Oc2ccc(-c3ccnc4cc(-c5ccc(C(=O)O)cc5)oc34)cc2C#N)CC(C)O1 (centres unmarked) [Compound 189] | 1000 to 5000 nM | > 5000 nM |
| CN(C)C(=O)c1ccc(-c2cc3nccc(-c4ccc(OC5CCNCC5)c(C#N)c4)c3o2)nc1 [Compound 190] | 100 to 1000 nM | > 5000 nM |
| CCOC(=O)c1ccc(-c2cc3nccc(-c4ccc(N5CC[C@@H](F)C5)c(C#N)c4)c3o2)cc1 [Compound 191, 4-{7-[3-Cyano-4-((R)-3-fluoro-pyrrolidin-1-yl)-phenyl]-furo[3,2-b]pyridin-2-yl}-benzoic acid ethyl ester] | 100 to 1000 nM | > 5000 nM |
| N#Cc1cc(-c2ccnc3cc(-c4ccc(C(=O)O)cc4)oc23)ccc1Oc1ccncc1 [Compound 192, 4-{7-[3-Cyano-4-(pyridin-4-yloxy)-phenyl]-furo[3,2-b]pyridin-2-yl}-benzoic acid] | > 5000 nM | > 5000 nM |
| CN(C)C(=O)c1ccc(-c2cc3nccc(-c4ccc(NC5CCOCC5)c(C#N)c4)c3o2)cc1 [Compound 194, 4-(7-(3-cyano-4-(tetrahydro-2H-pyran-4-ylamino)phenyl)furo[3,2-b]pyridin-2-yl)-N,N-dimethylbenzamide hydrochloride] | 100 to 1000 nM | 100 to 1000 nM |
| CC1CC(Nc2ccc(-c3ccnc4cc(-c5ccc(C(=O)N(C)C)cc5)oc34)cc2C#N)CC(C)O1 (centres unmarked) [Compound 215, 4-(7-(3-cyano-4-(2,6-dimethyl-tetrahydro-2H-pyran-4-ylamino)phenyl)furo[3,2-b]pyridin-2-yl)-N,N-dimethylbenzamide hydrochloride] | 100 to 1000 nM | 1000 to 5000 nM |
| CN(C)C(=O)c1ccc(-c2cc3nccc(-c4ccc(OC5CC(C)(C)NC(C)(C)C5)c(C#N)c4)c3o2)cc1 [Compound 216, 4-(7-(3-cyano-4-(2,2,6,6-tetramethylpiperidin-4-yloxy)phenyl)furo[3,2-b]pyridin-2-yl)-N,N-dimethylbenzamide] | > 5000 nM | > 5000 nM |
| CN(C)C(=O)c1ccc(-c2cc3nccc(-c4ccc(NC5C6COCC65)c(C#N)c4)c3o2)cc1 (centres unmarked) [Compound 217, 4-(7-(4-(3-oxa-bicyclo[3.1.0]hexan-6-ylamino)-3-cyanophenyl)furo[3,2-b]pyridin-2-yl)-N,N-dimethylbenzamide hydrochloride] | 100 to 1000 nM | 100 to 1000 nM |
| CN(C)C(=O)c1ccc(-c2cc3nccc(-c4ccc(NC5CC(C)(C)OC(C)(C)C5)c(C#N)c4)c3o2)cc1 [Compound 218, 4-(7-(3-cyano-4-(2,2,6,6-tetramethyl-tetrahydro-2H-pyran-4-ylamino)phenyl)furo[3,2-b]pyridin-2-yl)-N,N-dimethylbenzamide] | 1000 to 5000 nM | 1000 to 5000 nM |
